Test results as given in US20250002477A1, “BENZIMIDAZOLE COMPOUND OR SALT THEREOF, CANINE FILARIASIS CONTROL AGENT CONTAINING SAME, AND METHOD OF USE THEREOF” (NIHON NOHYAKU CO., LTD., priority 2021, published 2025).

Tested on: L-1 stage larvae of canine filariae (Dirofilaria immitis)
Experiment: Impact evaluation test on larvae motility of canine filariae
Details: final concentration of 50 ppm, 3 days, corrected for DMSO solution alone

SMILES: Clc1ccc(CCc2cn(-c3nc4ccccc4[nH]3)cn2)c(Cl)c1 [Compound 1-1, 2-(4-(2-(2,4-dichlorophenyl)ethyl)-1H-imidazol-1-yl)benzimidazole]
- activity level (corrected motility impediment rate): A (the corrected motility impediment rate is 100%)
